Reference: PubChem BioAssay AID2060342 (Molecular Pharmacology Branch, DTP, NCI, 2025)

Tested on: 171881-019-R-J1-PDC multicell spheroid viability
Assay: Anticancer human tumor 171881-019-R-J1-PDC patient-derived invasive breast carcinoma cell line growth inhibition [IpAb]
Conditions: for IC50: curve of first compound; for viability, T/C: stronger effect = lower value
Outline: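 Combinations with ipatasertib or abemaciclib were tested on tumour spheroids holding HUVEC (25%) and MSC (15%) alongside 60% malignant cells. Top concentration was at or near clinical Cmax (10 microM if undefined), descending in half-log steps.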

[1] = second compound 0.01 µM, first compound 0.0316 µM
[2] = second compound 0.01 µM, first compound 0.1 µM
[3] = second compound 0.01 µM, first compound 0.316 µM
[4] = second compound 0.01 µM, first compound 1 µM
[5] = second compound 0.0316 µM, first compound 0.0316 µM
[6] = second compound 0.0316 µM, first compound 0.1 µM
[7] = second compound 0.0316 µM, first compound 0.316 µM
[8] = second compound 0.0316 µM, first compound 1 µM
[9] = second compound 0.1 µM, first compound 0.0316 µM
[10] = second compound 0.1 µM, first compound 0.1 µM
[11] = second compound 0.1 µM, first compound 0.316 µM
[12] = second compound 0.1 µM, first compound 1 µM
[13] = second compound 0.316 µM, first compound 0.0316 µM
[14] = second compound 0.316 µM, first compound 0.1 µM
[15] = second compound 0.316 µM, first compound 0.316 µM
[16] = second compound 0.316 µM, first compound 1 µM
[17] = second compound 1 µM, first compound 0.0316 µM
[18] = second compound 1 µM, first compound 0.1 µM
[19] = second compound 1 µM, first compound 0.316 µM
[20] = second compound 1 µM, first compound 1 µM
[21] = second compound 0.01 µM, first compound 3.16 µM
[22] = second compound 0.01 µM, first compound 10 µM
[23] = second compound 0.0316 µM, first compound 3.16 µM
[24] = second compound 0.0316 µM, first compound 10 µM
[25] = second compound 0.1 µM, first compound 3.16 µM
[26] = second compound 0.1 µM, first compound 10 µM
[27] = second compound 0.316 µM, first compound 3.16 µM
[28] = second compound 0.316 µM, first compound 10 µM
[29] = second compound 1 µM, first compound 3.16 µM
[30] = second compound 1 µM, first compound 10 µM
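Also: spheroids exposed to the agents for seven days before readout.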

In the case of `CC(=O)c1c(C)c2cnc(Nc3ccc(N4CCNCC4)cn3)nc2n(C2CCCC2)c1=O` + CCN1CCN(Cc2ccc(Nc3ncc(F)c(-c4cc(F)c5nc(C)n(C(C)C)c5c4)n3)nc2)CC1, the IC50 (second compound 0.01 µM) is reported as > 300 nM, the IC50 (second compound 0.0316 µM) is reported as > 300 nM and the IC50 (second compound 0.1 µM) is reported as > 300 nM. For the same molecule, the IC50 (second compound 0.316 µM) was > 300 nM, the IC50 (second compound 1 µM) was > 300 nM and the viability, T/C (second compound 0.01 µM, first compound 0.000949 µM) was 98%. For the same molecule, the viability, T/C (second compound 0.01 µM, first compound 0.003 µM) was 90.7%, the viability, T/C (second compound 0.01 µM, first compound 0.00949 µM) was 77% and the viability, T/C (second compound 0.01 µM, first compound 0.03 µM) was 94.4%. For the same molecule, the viability, T/C (second compound 0.01 µM, first compound 0.0949 µM) was 105%, the viability, T/C (second compound 0.01 µM, first compound 0.3 µM) was 107% and the viability, T/C (second compound 0.0316 µM, first compound 0.000949 µM) was 107%. The viability, T/C (second compound 0.0316 µM, first compound 0.003 µM) was 96.6%, the viability, T/C (second compound 0.0316 µM, first compound 0.00949 µM) was 103% and the viability, T/C (second compound 0.0316 µM, first compound 0.03 µM) was 110%. It also gave a viability, T/C (second compound 0.0316 µM, first compound 0.0949 µM) of 107%, a viability, T/C (second compound 0.0316 µM, first compound 0.3 µM) of 109% and a viability, T/C (second compound 0.1 µM, first compound 0.000949 µM) of 119%. For the same molecule, the viability, T/C (second compound 0.1 µM, first compound 0.003 µM) was 109%, the viability, T/C (second compound 0.1 µM, first compound 0.00949 µM) was 115% and the viability, T/C (second compound 0.1 µM, first compound 0.03 µM) was 117%. For the same molecule, the viability, T/C (second compound 0.1 µM, first compound 0.0949 µM) was 115%, the viability, T/C (second compound 0.1 µM, first compound 0.3 µM) was 112% and the viability, T/C (second compound 0.316 µM, first compound 0.000949 µM) was 120%. It also gave a viability, T/C (second compound 0.316 µM, first compound 0.003 µM) of 136%, a viability, T/C (second compound 0.316 µM, first compound 0.00949 µM) of 127% and a viability, T/C (second compound 0.316 µM, first compound 0.03 µM) of 122%. The viability, T/C (second compound 0.316 µM, first compound 0.0949 µM) was 123%, the viability, T/C (second compound 0.316 µM, first compound 0.3 µM) was 122% and the viability, T/C (second compound 1 µM, first compound 0.000949 µM) was 144%. The viability, T/C (second compound 1 µM, first compound 0.003 µM) was 143%, the viability, T/C (second compound 1 µM, first compound 0.00949 µM) was 142% and the viability, T/C (second compound 1 µM, first compound 0.03 µM) was 142%. It also gave a viability, T/C (second compound 1 µM, first compound 0.0949 µM) of 140% and a viability, T/C (second compound 1 µM, first compound 0.3 µM) of 132%.

With `COc1c(OCCCN2CCOCC2)ccc2c3n(c(=NC(=O)c4cnc(N)nc4)nc12)CCN3` + CCN1CCN(Cc2ccc(Nc3ncc(F)c(-c4cc(F)c5nc(C)n(C(C)C)c5c4)n3)nc2)CC1 the IC50 (second compound 0.01 µM) was 19.5 nM, the IC50 (second compound 0.0316 µM) was 21.1 nM and the IC50 (second compound 0.1 µM) was 20.3 nM. The IC50 (second compound 0.316 µM) was 23.5 nM, the IC50 (second compound 1 µM) was 31.5 nM and the viability, T/C (second compound 0.01 µM, first compound 0.00316 µM) was 115%. For the same molecule, the viability, T/C (second compound 0.01 µM, first compound 0.01 µM) was 76.6%, the viability, T/C [1] was 31.9% and the viability, T/C [2] was 5.33%. It also gave a viability, T/C [3] of 1%, a viability, T/C [4] of 1.29% and a viability, T/C (second compound 0.0316 µM, first compound 0.00316 µM) of 113%. It also gave a viability, T/C (second compound 0.0316 µM, first compound 0.01 µM) of 76.2%, a viability, T/C [5] of 38.7% and a viability, T/C [6] of 4.99%. It also gave a viability, T/C [7] of 1%, a viability, T/C [8] of 1.5% and a viability, T/C (second compound 0.1 µM, first compound 0.00316 µM) of 115%. It also gave a viability, T/C (second compound 0.1 µM, first compound 0.01 µM) of 80.2%, a viability, T/C [9] of 31.9% and a viability, T/C [10] of 5.31%. The viability, T/C [11] was 0.99%, the viability, T/C [12] was 1.13% and the viability, T/C (second compound 0.316 µM, first compound 0.00316 µM) was 110%. For the same molecule, the viability, T/C (second compound 0.316 µM, first compound 0.01 µM) was 76.1%, the viability, T/C [13] was 45.3% and the viability, T/C [14] was 7.2%. For the same molecule, the viability, T/C [15] was 1.95%, the viability, T/C [16] was 1.08% and the viability, T/C (second compound 1 µM, first compound 0.00316 µM) was 121%. For the same molecule, the viability, T/C (second compound 1 µM, first compound 0.01 µM) was 82.6%, the viability, T/C [17] was 56.6% and the viability, T/C [18] was 17.2%. For the same molecule, the viability, T/C [19] was 4.08% and the viability, T/C [20] was 2%.

Work on `Cc1nc(NC(=O)N2CCCC2C(N)=O)sc1-c1ccnc(C(C)(C)C(F)(F)F)c1` (stereo not given) + CCN1CCN(Cc2ccc(Nc3ncc(F)c(-c4cc(F)c5nc(C)n(C(C)C)c5c4)n3)nc2)CC1 yielded an IC50 (second compound 0.01 µM) of 783 nM, an IC50 (second compound 0.0316 µM) of 733 nM and an IC50 (second compound 0.1 µM) of 823 nM. It also gave an IC50 (second compound 0.316 µM) of 977 nM, an IC50 (second compound 1 µM) of 1560 nM and a viability, T/C [1] of 109%. The viability, T/C [2] was 112%, the viability, T/C [3] was 72% and the viability, T/C [4] was 44.7%. For the same molecule, the viability, T/C [21] was 15.7%, the viability, T/C [22] was 1.42% and the viability, T/C [5] was 118%. For the same molecule, the viability, T/C [6] was 108%, the viability, T/C [7] was 75.7% and the viability, T/C [8] was 40.9%. For the same molecule, the viability, T/C [23] was 13.5%, the viability, T/C [24] was 2.7% and the viability, T/C [9] was 117%. For the same molecule, the viability, T/C [10] was 112%, the viability, T/C [11] was 75.9% and the viability, T/C [12] was 44.9%. For the same molecule, the viability, T/C [25] was 18.3%, the viability, T/C [26] was 2.71% and the viability, T/C [13] was 130%. For the same molecule, the viability, T/C [14] was 112%, the viability, T/C [15] was 85.7% and the viability, T/C [16] was 47.2%. For the same molecule, the viability, T/C [27] was 23%, the viability, T/C [28] was 4.63% and the viability, T/C [17] was 137%. The viability, T/C [18] was 117%, the viability, T/C [19] was 89.8% and the viability, T/C [20] was 64.1%. For the same molecule, the viability, T/C [29] was 29.7% and the viability, T/C [30] was 8.19%.

`Cn1nccc1Nc1nccc(-c2ccn(C(CO)c3ccc(Cl)c(F)c3)c(=O)c2)n1` (stereo not given) + CCN1CCN(Cc2ccc(Nc3ncc(F)c(-c4cc(F)c5nc(C)n(C(C)C)c5c4)n3)nc2)CC1 gave an IC50 (second compound 0.01 µM) of 772 nM, an IC50 (second compound 0.0316 µM) of 810 nM and an IC50 (second compound 0.1 µM) of 929 nM. The IC50 (second compound 0.316 µM) was 1140 nM, the IC50 (second compound 1 µM) was 2970 nM and the viability, T/C [1] was 117%. For the same molecule, the viability, T/C [2] was 112%, the viability, T/C [3] was 79.5% and the viability, T/C [4] was 41.6%. It also gave a viability, T/C [21] of 24.5%, a viability, T/C [22] of 18.5% and a viability, T/C [5] of 132%. For the same molecule, the viability, T/C [6] was 122%, the viability, T/C [7] was 80.6% and the viability, T/C [8] was 43.2%. For the same molecule, the viability, T/C [23] was 29.2%, the viability, T/C [24] was 19.7% and the viability, T/C [9] was 138%. It also gave a viability, T/C [10] of 113%, a viability, T/C [11] of 78.5% and a viability, T/C [12] of 47.4%. For the same molecule, the viability, T/C [25] was 31.2%, the viability, T/C [26] was 20.9% and the viability, T/C [13] was 144%. It also gave a viability, T/C [14] of 122%, a viability, T/C [15] of 79.3% and a viability, T/C [16] of 52.2%. It also gave a viability, T/C [27] of 38.8%, a viability, T/C [28] of 26.5% and a viability, T/C [17] of 161%. The viability, T/C [18] was 129%, the viability, T/C [19] was 87.5% and the viability, T/C [20] was 61.5%. The viability, T/C [29] was 46.5% and the viability, T/C [30] was 32.7%.
